Source: article PMC12526022, “Synthesis of First Copper Metal Complex of C=C Extended Curcuminoid Analogue: Structure, β-Cyclodextrin Association, and Biological Properties” (Molecules, 2025)

Key:
yeast α-glucosidase = biological target: T1, yeast α-glucosidase (Saccharomyces cerevisiae, UniProt P53341); test: Inhibition of yeast α-glucosidase (p-nitrophenyl-α-D-glucopyranoside substrate, OD 405 nm); type: biochemical; details: for D.O. 405 nm / Inhibition (%): mean ± SEM; for IC50: mean ± standard error of the mean, n = 3-5, read-out: Yeast α-glucosidase inhibition, half-maximal inhibitory concentration (IC50)
T1 construct: purchased Sigma Aldrich G5003-100UN
T1 sequence (P53341 whole entry): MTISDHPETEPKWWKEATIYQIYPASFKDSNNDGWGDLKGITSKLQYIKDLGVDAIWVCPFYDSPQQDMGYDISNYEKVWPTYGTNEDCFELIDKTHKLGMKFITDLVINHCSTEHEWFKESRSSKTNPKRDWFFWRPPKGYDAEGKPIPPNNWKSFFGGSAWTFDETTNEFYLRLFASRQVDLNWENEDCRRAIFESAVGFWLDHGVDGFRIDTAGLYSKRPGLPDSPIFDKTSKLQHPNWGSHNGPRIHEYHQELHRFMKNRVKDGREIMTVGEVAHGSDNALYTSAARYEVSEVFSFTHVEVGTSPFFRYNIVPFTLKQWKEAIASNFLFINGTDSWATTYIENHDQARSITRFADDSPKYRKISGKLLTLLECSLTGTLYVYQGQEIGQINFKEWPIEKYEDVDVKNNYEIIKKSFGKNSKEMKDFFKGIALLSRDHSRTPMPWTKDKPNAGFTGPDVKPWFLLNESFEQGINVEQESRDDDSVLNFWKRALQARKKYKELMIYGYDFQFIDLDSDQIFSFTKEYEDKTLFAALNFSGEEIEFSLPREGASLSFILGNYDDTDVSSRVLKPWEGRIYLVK
Protocol: The inhibition of α-glucosidase was evaluated using a previously adapted method. Briefly, a solution (25 µL) of tested samples in DMSO-H2O 1:1 was added to 150 µL of phosphate buffer (PBS, 67 mM, pH 6.8) and incubated at 37 °C for 10 min with 25 µL of reduced glutatione (3 mM in PBS) and 25 µL of α-glucosidase type I solution (0.2 U/mL in PBS, CAS G5003-100UN) (Sigma Aldrich, Toluca, Estado de México, Mexico). Subsequently, 25 µL of the substrate solution (23.2 mM p-nitrophenyl-α-D-glucopyranoside, CAS N1377-1G, in PBS) (Sigma Aldrich, Toluca, Estado de México, Mexico) was added, and the mixture was incubated at 37 °C for 15 min under shaking. The reaction mixture was stopped by the addition of a […] 1M solution (50 µL), followed by agitation for 5 min. […] The percentage of inhibition was calculated according to the following equation:Inhibition (%) = [(Acontrol − Asample)/Acontrol] × 100 where A is the absorbance at 405 nm of the sample and the control.
Table S5. Inhibition of yeast α-glucosidase. Determination of half-maximal inhibitory concentration […]
Values represent the mean of three to five independent experiments ± standard error of the mean.
Data were examined by analysis of variance (ANOVA) followed by Dunnett's test to determine groups with significant differences. Values of p ≤0.05 (*) and p ≤ 0.01 (**) were considered significant differences from the control.

SKLU-1 lung cancer cells = test: Sulforhodamine B antiproliferative assay, SKLU-1; type: cell-based; details: SKLU-1, 10 µM, vehicle DMSO, 48 h, NA: no activity
Protocol: (§1) Antiproliferative activity was evaluated by Sulforhodamine B assay against colon cancer (HCT-15), breast cancer (MCF-7), leukaemia ([…]), central nervous system glial (U-251), and prostate cancer (PC-3) cell lines, which the National Cancer Institute supplied. The cell lines were cultured in RPMI-1640 medium supplemented with 10% fetal bovine serum, 2 mM L-glutamine, […] penicillin G, 100 µg/mL streptomycin sulfate, and 0.25 µg/mL amphotericin B Gibco (Thermo Fisher Scientific, Grand Island, NY, USA). They were incubated at 37 °C in an atmosphere of 5% CO2 and 95% humidity. For the assay, cells were suspended in a 0.1% trypsin-EDTA solution (Gibco). Cell viability was counted using a hematocytometer and diluted with medium to achieve the following densities: 5 × 10^4 cells/mL (SKLU-1, K562) and 7.5 × 10^4 cells/mL (U251, PC-3). […]
(§2) After 24 h, the cells were treated with 100 µL of the compounds to be evaluated, previously dissolved in RPMI-1640 medium and 1% DMSO, and then incubated for 48 h at 37 °C in a 5% CO2 atmosphere. […]
(§3) After 48 h, the adherent cells were fixed by adding 50 µL of a cold 50% (m/vol) […] solution and incubated at 4 °C for 60 min. […] The optical density of the treated samples was determined in a Bio Kinetics microplate reader at a wavelength of 515 nm (Synergy HT, BioTek, Winooski, VT, USA). […]

[1] = tested on: HCT-15 colon cancer cells; test: Sulforhodamine B antiproliferative assay, HCT-15; type: cell-based; details: HCT-15, 10 µM, vehicle DMSO, 48 h, NA: no activity
Protocol: as §1, §2, §3

[2] = tested on: COS-7 monkey kidney fibroblast; test: Sulforhodamine B assay, COS7 healthy cells; type: cell-based; details: 10 µM, vehicle DMSO, 48 h
[3] = Solubility in polar solvents (observation); type: physicochemical
[4] = tested on: PC-3 prostate cancer cells; test: Sulforhodamine B antiproliferative assay, PC-3; type: cell-based; details: PC-3, 10 µM, vehicle DMSO, 48 h, NA: no activity
Protocol: as §1, §2, §3

[5] = tested on: MCF-7 breast cancer cells; test: Sulforhodamine B antiproliferative assay, MCF-7; type: cell-based; details: MCF-7, 10 µM, vehicle DMSO, 48 h, NA: no activity
Protocol: as §1, §2, §3

α-glucosidase = biological target: α-glucosidase; design: method as in PMID 16387392, doi:10.1016/j.kjs.2024.100312; details: literature values for comparison; read-out: α-glucosidase inhibitory activity IC50; cited from earlier work

| SMILES | inhibition at 10 µM (yeast α-glucosidase) [%] | inhibition at 100 µM (yeast α-glucosidase) [%] | D.O. 405 nm (yeast α-glucosidase; 1 µM) | D.O. 405 nm (yeast α-glucosidase; 10 µM) | D.O. 405 nm (yeast α-glucosidase; 100 µM) | Cellular growth inhibition (%) [2] [%] | Solubility in polar solvents (in words) [3] | inhibition at 17.78 µM (yeast α-glucosidase) [%] | inhibition at 31.62 µM (yeast α-glucosidase) [%] | inhibition at 56.23 µM (yeast α-glucosidase) [%] | D.O. 405 nm (yeast α-glucosidase; 17.78 µM) | D.O. 405 nm (yeast α-glucosidase; 31.62 µM) | D.O. 405 nm (yeast α-glucosidase; 56.23 µM) | IC50 (yeast α-glucosidase) [µM] | IC50 (α-glucosidase) [µM] | other results |
| --- | --- | --- | --- | --- | --- | --- | --- | --- | --- | --- | --- | --- | --- | --- | --- | --- |
| OC[C@H]1O[C@@H]2O[C@H]3[C@H](O)[C@@H](O)[C@@H](O[C@H]4[C@H](O)[C@@H](O)[C@@H](O[C@H]5[C@H](O)[C@@H](O)[C@@H](O[C@H]6[C@H](O)[C@@H](O)[C@@H](O[C@H]7[C@H](O)[C@@H](O)[C@@H](O[C@H]8[C@H](O)[C@@H](O)[C@@H](O[C@H]1[C@H](O)[C@H]2O)O[C@@H]8CO)O[C@@H]7CO)O[C@@H]6CO)O[C@@H]5CO)O[C@@H]4CO)O[C@@H]3CO [BCD, β-cyclodextrin] | 1.11 ± 4.12 | 2.31 ± 3.94 | 1.275±0.028 | 1.261±0.022 | 1.246±0.019 |  |  |  |  |  |  |  |  |  |  | inhibition at 1 µM (yeast α-glucosidase): 0.2 ± 3.02% |
| O=C(/C=C(O)/C=C/C=C/c1ccccc1)/C=C/C=C/c1ccccc1 [Compound 2] | 7.61 ± 2.8 | 86.9 ± 7.53 |  | 1.205±0.051 | 0.174±0.105 | 7.35 | poor solubility | 16.9 ± 3.75 | 31.6 ± 6.86 | 66.3 ± 10.2 | 1.084±0.067 | 0.894±0.105 | 0.446±0.147 | 45.6 |  | inhibition at 10 µM (SKLU-1 lung cancer cells; Homo sapiens, SK-LU-1, read-out: Cellular growth inhibition (%)): 7.45%; inhibition at 10 µM ([1]; Homo sapiens, read-out: Cellular growth inhibition (%)): 15.9%; inhibition at 10 µM ([4]; read-out: Cellular growth inhibition (%)): 11.8%; inhibition at 10 µM ([5]; Homo sapiens, MCF7, read-out: Cellular growth inhibition (%)): 11.5% |
| O=C(C=CC=Cc1ccccc1)C=C([O-])C=CC=Cc1ccccc1.O=C(C=CC=Cc1ccccc1)C=C([O-])C=CC=Cc1ccccc1.[Cu+2] [Compound 3] |  |  | 1.314±0.041 | 1.226±0.025 | 1.071±0.044 | 15.49 | poor solubility |  |  |  |  |  |  | > 100 |  | Cellular growth inhibition (%) (SKLU-1 lung cancer cells): 0.58%; Cellular growth inhibition (%) [1]: 12.04%; α-glucosidase inhibitory activity (in words) (yeast α-glucosidase): no inhibition activity at high concentrations; Inhibition (%) (yeast α-glucosidase; 1 µM): -2.68±1.55%; Inhibition (%) (yeast α-glucosidase; 10 µM): 4.11±1.43%; Inhibition (%) (yeast α-glucosidase; 100 µM): 16.19 ± 3.18%; Cellular growth inhibition (%) [4]: 1.95%; Cellular growth inhibition (%) [5]: 12.35% |
| O=c1c(O)c(-c2ccc(O)c(O)c2)oc2cc(O)cc(O)c12 [Quercetin, quercetin, reference compound] | 16.2 ± 2.95 |  |  | 1.142±0.064 |  |  |  | 36.9 ± 1.16 | 59.1 ± 0.88 | 72.2 ± 1.55 | 0.861±0.044 | 0.556±0.019 | 0.376±0.016 |  |  | inhibition at 5.62 µM (yeast α-glucosidase): 6.31 ± 2.5%; D.O. 405 nm (yeast α-glucosidase; 5.62 µM): 1.276±0.063 |
| O=C(/C=C/c1ccc(O)cc1)CC(=O)/C=C/c1ccc(O)cc1 [bisdemetoxicurcumin] |  |  |  |  |  |  |  |  |  |  |  |  |  |  | 90.6 |  |
| COc1cc(/C=C/C(O)=C/C(=O)/C=C/c2ccc(O)cc2)ccc1O [demetoxicurcumin] |  |  |  |  |  |  |  |  |  |  |  |  |  |  | 82.4 |  |
